The results in this text go back to patent US20070184017A1, “Anti-aging treatment using copper and zinc compositions” (priority 2006, published 2007).

The assay deals with wrinkling on face. The assay is described as follows: Gel composition applied to wrinkled face twice daily (Example 1). Type of assay: in vivo, human. The following applies: person. From the text:
A person is suffering from wrinkling on their face. A gel composition suitable for treatment of skin containing an effective amount of copper-zinc malonate active ingredient is routinely applied to their face twice daily.

With copper-zinc malonate, the wrinkling on face result was “reduced or eliminated”.
